In US10294229B2, “Heteroaryl substituted aminopyridine compounds” (BRISTOL-MYERS SQUIBB COMPANY, priority 2015, dated 2019) one finds IC50, EC50 and Papp data, which are given here for 17 molecules.

For one data set, the target named is IRAK4 (Homo sapiens (Human), UniProt Q9NWZ3). The experiment in a line: IRAK4 Inhibition Assay. The format is biochemical. The conditions noted are these: ATP 500 μM; IRAK4 0.6 nM. The procedure, abridged: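 Enzyme 0.6 nM, ATP 500 μM, FL-peptide 1.5 μM, DMSO 1.6%; HEPES pH 7.2/MgCl2/Brij 35/DTT buffer. RT, 60 min, EDTA stop. Mobility-shift product/substrate ratio; % inhib vs no-enzyme and vehicle controls.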
IRAK4, sequence (Q9NWZ3 whole entry, species assumed): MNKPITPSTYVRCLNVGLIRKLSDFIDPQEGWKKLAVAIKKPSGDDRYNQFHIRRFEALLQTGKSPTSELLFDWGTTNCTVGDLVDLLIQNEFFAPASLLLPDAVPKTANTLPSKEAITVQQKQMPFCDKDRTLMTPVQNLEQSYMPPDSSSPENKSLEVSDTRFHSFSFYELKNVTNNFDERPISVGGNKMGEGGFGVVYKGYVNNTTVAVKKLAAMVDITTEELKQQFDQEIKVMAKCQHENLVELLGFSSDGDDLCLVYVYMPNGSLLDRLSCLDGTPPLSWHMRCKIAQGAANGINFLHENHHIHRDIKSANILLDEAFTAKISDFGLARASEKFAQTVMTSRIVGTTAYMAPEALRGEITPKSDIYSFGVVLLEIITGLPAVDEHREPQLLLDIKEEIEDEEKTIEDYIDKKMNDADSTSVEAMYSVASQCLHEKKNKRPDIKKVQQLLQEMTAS

The test system of data set [1] is Human whole blood stimulated with a TLR2 agonist (lipoteichoic acid), IL-6 levels. The experiment in a line: IRAK4 Whole Blood Assay. The format is cell-based. The conditions noted are these: lipoteichoic acid 10 μg/mL. In short, it runs like this:
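ACD-A-anticoagulated human whole blood was preincubated with compounds for 60 min at 37 °C under 5% CO2. It was then stimulated with 10 μg/mL lipoteichoic acid (final) in RPMI for 5 h. IL-6 in plasma supernatants was measured by flow cytometry bead assay.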

A short description of data set [2]: Caco-2 Permeability Assay. The format is in vitro ADME. The conditions noted are these: human, Caco-2, test compound 3 μM. As to the method:
Caco-2 Permeability Assay
Thirteen to 27 days prior to assay, Caco-2 cells were seeded onto collagen-coated polycarbonate filter membranes in 24-well transwell plates at a density of 1.45×10^5 cells/cm^2, approximately 4.8×10^4 cells per well. The cells were grown in a culture medium consisting of DMEM supplemented with 10% fetal bovine serum, 10 mM HEPES, 1% nonessential amino acids, 2 mM L-glutamine, 100 U/mL penicillin-G, and 100 μg/mL streptomycin. The culture medium was replaced every 3 days and the cells were maintained at 37° C. in a 95% relative humidity and 5% CO2 atmosphere. The cells were evaluated for tight junction formation just prior to assay. The test compound was solubilized to 10 mM in 100% DMSO and diluted to 3 μM in assay buffer. Permeability studies were initiated by adding 200 μL assay buffer plus/minus compound to the apical transwell compartment and 600 μL assay buffer plus/minus compound to the basolateral compartment of the 24-well transwell low-binding cluster plate. For apical-to-basolateral (A to B) permeability (absorptive direction), buffer containing compound was placed in the apical compartment (donor wells), while buffer alone was placed in the corresponding basolateral compartments (receiver wells). For basolateral-to-apical (B to A) permeability (secretive direction), buffer containing compound was placed in the basolateral compartment (donor wells), while buffer alone was placed in the corresponding apical compartments (receiver wells). Transwells were then incubated for 2 hours at 37° C. in a 95% relative humidity and 5% CO2 atmosphere with gentle agitation. Following incubation, 100 μL was removed from each apical and basolateral compartment and transferred to 96-well low binding plates that had been previously loaded with 100 μL/well of acetonitrile containing 250 nM propranolol, 250 nM diclofenac, and 500 nM tolbutamide as internal standards. The samples were subsequently analyzed by LC-MS/MS to determine concentrations of compound.
A general note: Caco-2 monolayers are a common model of the intestinal barrier.

Structures are written as SMILES.

Usually IC50 stands for the concentration that inhibits the measured activity by half. Broadly, the EC50 is the concentration at which the effect is half-maximal. A high value points to a less potent agent. The term Papp denotes a coefficient for how fast a substance crosses the barrier. With `CC(C)Nc1cc(-n2ncc3cc(C#N)cnc32)ncc1-c1cn(CC2CC2(F)F)nn1` (single isomer, unassigned) [Example 31, 1-(5-(1-((2,2-difluorocyclopropyl)methyl)-1H-1,2,3-triazol-4-yl)-4-(isopropylamino)pyridin-2-yl)-1H-pyrazolo[3,4-b]pyridine-5-carbonitrile], the IC50 at IRAK4 worked out at 7 nM. The same molecule displayed an EC50 in data set [1] of 1970 nM. The molecule also had a Papp at 2 h, 3 µM in data set [2] of 15.9 ×10⁻⁶ cm/s.
For the molecule `CC(C)Nc1cc(-n2ncc3cc(C#N)cnc32)ncc1-c1cn(CCCCO)nn1` [Example 124, 1-(5-(1-(4-hydroxybutyl)-1H-1,2,3-triazol-4-yl)-4-(isopropylamino)pyridin-2-yl)-1H-pyrazolo[3,4-b]pyridine-5-carbonitrile], the IC50 on IRAK4 turned out to be 2 nM. This molecule also returned an EC50 in data set [1] (Homo sapiens) of 290 nM. Further, in data set [2], the Papp at 2 h, 3 µM worked out at 2.9 ×10⁻⁶ cm/s.
For `CC(C)Nc1cc(-n2ccc3cncnc32)ncc1-c1cn(CCN2CCOCC2)nn1` [Example 3, N-isopropyl-5-(1-(2-morpholinoethyl)-1H-1,2,3-triazol-4-yl)-2-(7H-pyrrolo[2,3-d]pyrimidin-7-yl)pyridin-4-amine] the same measures were 2 nM, 560 nM and 33 ×10⁻⁶ cm/s.
The matching figures for `CC(C)Nc1cc(-n2ncc3cc(C#N)cnc32)ncc1-c1cc(C2COC(C)(C)CN2)no1` (stereo not drawn) [Example 423, 1-(5-(3-(6,6-dimethylmorpholin-3-yl)isoxazol-5-yl)-4-(isopropylamino)pyridin-2-yl)-1H-pyrazolo[3,4-b]pyridine-5-carbonitrile]: 2 nM, 160 nM and 39.4 ×10⁻⁶ cm/s.
For the molecule `CC(C)Nc1cc(-n2ncc3cc(C#N)cnc32)ncc1-n1cc(CCC(C)(C)OC(=O)C2CC2)nn1` [Example 382, 4-(1-(6-(5-cyano-1H-pyrazolo[3,4-b]pyridin-1-yl)-4-(isopropylamino)pyridin-3-yl)-1H-1,2,3-triazol-4-yl)-2-methylbutan-2-yl cyclopropanecarboxylate], the IC50 on IRAK4 was 2 nM. In data set [1] (Homo sapiens), the EC50 came out at 460 nM. In data set [2], this molecule came in with a Papp at 2 h, 3 µM of 24.8 ×10⁻⁶ cm/s.
As for `CC(=O)Cc1cn(-c2cnc(-n3ncc4cc(C#N)cnc43)cc2NC(C)C)nn1` [Example 331, 1-(4-(isopropylamino)-5-(4-(2-oxopropyl)-1H-1,2,3-triazol-1-yl)pyridin-2-yl)-1H-pyrazolo[3,4-b]pyridine-5-carbonitrile], at IRAK4, the IC50 worked out at 10 nM. Further, the EC50 in data set [1] (Homo sapiens) amounted to 2560 nM. Moreover, in data set [2], the Papp at 2 h, 3 µM was determined as 9.2 ×10⁻⁶ cm/s.
The matching figures for `CC(C)Nc1cc(-n2ncc3cc(C#N)cnc32)ncc1-c1cn(CCC(C)(C)O)cn1` [Example 240, 1-(5-(1-(3-hydroxy-3-methylbutyl)-1H-imidazol-4-yl)-4-(isopropylamino)pyridin-2-yl)-1H-pyrazolo[3,4-b]pyridine-5-carbonitrile]: 3 nM, 740 nM and 5.7 ×10⁻⁶ cm/s.
In the case of `CC(C)Nc1cc(-n2ncc3cc(C#N)cnc32)ncc1-c1cc(C2CC(F)(F)CCN2)no1` (stereo not drawn) [Example 422, 1-(5-(3-(4,4-difluoropiperidin-2-yl)isoxazol-5-yl)-4-(isopropylamino)pyridin-2-yl)-1H-pyrazolo [3,4-b]pyridine-5-carbonitrile], the IC50 at IRAK4 was 3 nM. For the same molecule, a half-maximal response in data set [1] (Homo sapiens) (EC50) required 480 nM. Also, in data set [2], the apparent permeability coefficient (Papp) at 2 h, 3 µM stood at 31.7 ×10⁻⁶ cm/s.
`CCNc1cc(-n2ncc3cc(C#N)cnc32)ncc1C1=NOC(CCC(C)(C)O)C1` (stereo not drawn) [Example 440, 1-(4-(ethylamino)-5-(5-(3-hydroxy-3-methylbutyl)-4,5-dihydroisoxazol-3-yl)pyridin-2-yl)-1H-pyrazolo[3,4-b]pyridine-5-carbonitrile]: the IC50 at IRAK4 was found to be 4 nM. Besides, the EC50 in data set [1] (Homo sapiens) is 280 nM. This molecule gave a Papp at 2 h, 3 µM in data set [2] of 31.6 ×10⁻⁶ cm/s.
In the case of `CC(=O)N1CCC(n2cc(-c3cnc(-n4ncc5cc(C#N)cnc54)cc3NC(C)C)nn2)CC1` [Example 159, 1-(5-(1-(1-acetylpiperidin-4-yl)-1H-1,2,3-triazol-4-yl)-4-(isopropylamino)pyridin-2-yl)-1H-pyrazolo[3,4-b]pyridine-5-carbonitrile], the IC50 at IRAK4 is 4 nM. This molecule also had an EC50 in data set [1] (Homo sapiens) of 130 nM. Further, the Papp at 2 h, 3 µM in data set [2] was less than 1.5 ×10⁻⁶ cm/s.
For `COC(=O)N[C@H]1CC[C@H](n2cc(-c3cnc(-n4ncc5cc(C#N)cnc54)cc3NC(C)C)nn2)CC1` [Example 393, methyl ((1r,4r)-4-(4-(6-(5-cyano-1H-pyrazolo[3,4-b]pyridin-1-yl)-4-(isopropylamino)pyridin-3-yl)-1H-1,2,3-triazol-1-yl)cyclohexyl)carbamate] the same measures were 2 nM, 330 nM and 10.6 ×10⁻⁶ cm/s.
`CCOCCn1cc(-c2cnc(-n3ncc4cc(C#N)cnc43)cc2NC(C)C)nn1` [Example 122, 1-(5-(1-(2-ethoxyethyl)-1H-1,2,3-triazol-4-yl)-4-(isopropylamino)pyridin-2-yl)-1H-pyrazolo[3,4-b]pyridine-5-carbonitrile]: on IRAK4, the IC50 is 6 nM. Moreover, the EC50 in data set [1] (Homo sapiens) was 590 nM. This molecule also gave a Papp at 2 h, 3 µM in data set [2] of 32.2 ×10⁻⁶ cm/s.
Turning to `CC(C)Nc1cc(-n2ncc3cc(C#N)cnc32)ncc1-c1cn(CCc2ccncc2)nn1` [Example 120, 1-(4-(isopropylamino)-5-(1-(2-(pyridin-4-yl)ethyl)-1H-1,2,3-triazol-4-yl)pyridin-2-yl)-1H-pyrazolo[3,4-b]pyridine-5-carbonitrile], at IRAK4, the IC50 amounted to 1 nM. This molecule had an EC50 in data set [1] (Homo sapiens) of 200 nM. Moreover, the Papp at 2 h, 3 µM in data set [2] was 7.4 ×10⁻⁶ cm/s.
As for `CCCn1cc(-c2cnc(-n3ncc4cc(C#N)cnc43)cc2Nc2cnn(CC(F)F)c2)nn1` [Example 60, 1-(4-((1-(2,2-difluoroethyl)-1H-pyrazol-4-yl)amino)-5-(1-propyl-1H-1,2,3-triazol-4-yl)pyridin-2-yl)-1H-pyrazolo[3,4-b]pyridine-5-carbonitrile], the IC50 at IRAK4 came to 2 nM. This molecule registered an EC50 in data set [1] (Homo sapiens) of 250 nM. In addition, the Papp at 2 h, 3 µM in data set [2] amounted to 11.9 ×10⁻⁶ cm/s.
Regarding `CC(C)(O)CCc1cn(-c2cnc(-n3ncc4cc(C#N)cnc43)cc2NC2CCOC2)nn1` [Example 365, (S)-1-(5-(4-(3-hydroxy-3-methylbutyl)-1H-1,2,3-triazol-1-yl)-4-((tetrahydrofuran-3-yl)amino)pyridin-2-yl)-1H-pyrazolo[3,4-b]pyridine-5-carbonitrile], the concentration for half-maximal inhibition (IC50) at IRAK4 was found to be 3 nM. In data set [1] (Homo sapiens), it took 410 nM to reach a half-maximal effect (EC50). This molecule came in with a Papp at 2 h, 3 µM in data set [2] of less than 1.5 ×10⁻⁶ cm/s.
For `CC(=O)NC1CCC(c2cn(-c3cnc(-n4ncc5cc(C#N)cnc54)cc3NC(C)C)nn2)CC1` (stereo not drawn) [Example 341, N-((1s,4s)-4-(1-(6-(5-cyano-1H-pyrazolo[3,4-b]pyridin-1-yl)-4-(isopropylamino)pyridin-3-yl)-1H-1,2,3-triazol-4-yl)cyclohexyl)acetamide] the same measures were 3 nM, 300 nM and less than 1.5 ×10⁻⁶ cm/s.
In the case of `CC(C)Nc1cc(-n2ccc3cncnc32)ncc1-c1cn([C@H]2CCNC[C@H]2O)nn1` [Example 6, (3R,4S)-4-(4-(4-(isopropylamino)-6-(7H-pyrrolo[2,3-d]pyrimidin-7-yl)pyridin-3-yl)-1H-1,2,3-triazol-1-yl)piperidin-3-ol], on IRAK4, the IC50 came to 5 nM. Moreover, in data set [1] (Homo sapiens), a half-maximal effect (EC50) was put at 1450 nM. Also, the Papp at 2 h, 3 µM in data set [2] worked out at 1.7 ×10⁻⁶ cm/s.
